How the values were obtained:
[1] = Neurotoxicity was determined in cultured mouse cortical neurons; type: toxicity
[2] = target: Glutamate receptor ionotropic, NMDA 2C (Rattus norvegicus, UniProt Q00961); test: Binding affinity of compound was determined against N-methyl-D-aspartate glutamate receptor, using radioligand [3H]- CGP-39653
[3] = target: T1, Metabotropic glutamate receptor 1 (Homo sapiens, UniProt Q13255); test: Antagonist activity of compound at Metabotropic glutamate receptor 1 alpha was determined; type: functional
Rattus norvegicus = species: Rattus norvegicus; test: Effective concentration of compound was determined for electrophysiological properties on iGluRs using rat cortical slice model in Xenopus laevis oocytes
Glutamate receptor 1 [4] = target: Glutamate receptor 1 (Rattus norvegicus, UniProt P19490); test: Binding affinity of compound was determined against Ionotropic glutamate receptor AMPA receptor, using radioligand [3H]- AMPA
Glutamate receptor 2 [5] = target: Glutamate receptor 2 (Homo sapiens, UniProt P42262); test: biochemical
Glutamate receptor 4 [6] = target: Glutamate receptor 4 (Rattus norvegicus, UniProt P19493); test: Effective concentration of compound was determined for electrophysiological properties on Ionotropic glutamate receptor AMPA 4 (GluR4) using […] Xenopus laevis oocytes; type: functional, cell-based, Oocyte
[7] = target: Glutamate receptor ionotropic, kainate 1 (Homo sapiens, UniProt P39086); test: Binding affinity of compound was determined towards cloned Ionotropic glutamate receptor ionotropic kainate 1 (GluR5) expressed in Sf 9 insect cells
Glutamate receptor 3 [8] = target: Glutamate receptor 3 (Rattus norvegicus, UniProt P19492); test: Effective concentration of compound was determined for electrophysiological properties on Ionotropic glutamate receptor AMPA 3 (GluR3) using […] Xenopus laevis oocytes; type: functional, cell-based, Oocyte
[9] = target: T2, Glutamate receptor ionotropic, kainate 3 (Rattus norvegicus, UniProt P42264); test: Binding affinity of compound was determined against KA receptor, using radioligand [3H]- KA
Glutamate receptor 3 [10] = target: Glutamate receptor 3 (Homo sapiens, UniProt P42263); test: Binding affinity of compound was determined towards cloned Ionotropic glutamate receptor AMPA 3 (GluR3) expressed in Sf 9 insect cells
[11] = target: Glutamate receptor ionotropic, kainate 2 (Homo sapiens, UniProt Q13002); test: Binding affinity of compound was determined towards cloned Ionotropic glutamate receptor ionotropic kainate 6 (GluR6) expressed in Sf 9 insect cells
Glutamate receptor 2 [12] = target: Glutamate receptor 2 (Rattus norvegicus, UniProt P19491); test: Effective concentration of compound was determined for electrophysiological properties on Ionotropic glutamate receptor AMPA 2 (GluR2) using […] Xenopus laevis oocytes; type: functional, cell-based, Oocyte
Glutamate receptor 1 [13] = target: Glutamate receptor 1 (Homo sapiens, UniProt P42261); test: Binding affinity of compound was determined towards cloned Ionotropic glutamate receptor AMPA 1 (GluR1) expressed in Sf 9 insect cells
Glutamate receptor 4 [14] = target: Glutamate receptor 4 (Homo sapiens, UniProt P48058); test: Binding affinity of compound was determined towards cloned Ionotropic glutamate receptor AMPA 4 (GluR4) expressed in Sf 9 insect cells
[15] = target: T2, Glutamate receptor ionotropic, kainate 3; test: Binding affinity of compound was determined against Ionotropic glutamate receptor ionotropic kainate, using radioligand [3H]- KA
[16] = target: T1, Metabotropic glutamate receptor 1; test: Antagonist activity of compound at Metabotropic glutamate receptor 1 was determined; type: functional
Glutamate receptor 1 [17] = target: Glutamate receptor 1 (Mus musculus, UniProt P23818); test: Effective concentration of compound was determined for electrophysiological properties on […] glutamate receptor 1 using […] Xenopus laevis oocytes; type: functional, cell-based, Oocyte

Glutamate receptor ionotropic, kainate 1, sequence (P39086 whole entry): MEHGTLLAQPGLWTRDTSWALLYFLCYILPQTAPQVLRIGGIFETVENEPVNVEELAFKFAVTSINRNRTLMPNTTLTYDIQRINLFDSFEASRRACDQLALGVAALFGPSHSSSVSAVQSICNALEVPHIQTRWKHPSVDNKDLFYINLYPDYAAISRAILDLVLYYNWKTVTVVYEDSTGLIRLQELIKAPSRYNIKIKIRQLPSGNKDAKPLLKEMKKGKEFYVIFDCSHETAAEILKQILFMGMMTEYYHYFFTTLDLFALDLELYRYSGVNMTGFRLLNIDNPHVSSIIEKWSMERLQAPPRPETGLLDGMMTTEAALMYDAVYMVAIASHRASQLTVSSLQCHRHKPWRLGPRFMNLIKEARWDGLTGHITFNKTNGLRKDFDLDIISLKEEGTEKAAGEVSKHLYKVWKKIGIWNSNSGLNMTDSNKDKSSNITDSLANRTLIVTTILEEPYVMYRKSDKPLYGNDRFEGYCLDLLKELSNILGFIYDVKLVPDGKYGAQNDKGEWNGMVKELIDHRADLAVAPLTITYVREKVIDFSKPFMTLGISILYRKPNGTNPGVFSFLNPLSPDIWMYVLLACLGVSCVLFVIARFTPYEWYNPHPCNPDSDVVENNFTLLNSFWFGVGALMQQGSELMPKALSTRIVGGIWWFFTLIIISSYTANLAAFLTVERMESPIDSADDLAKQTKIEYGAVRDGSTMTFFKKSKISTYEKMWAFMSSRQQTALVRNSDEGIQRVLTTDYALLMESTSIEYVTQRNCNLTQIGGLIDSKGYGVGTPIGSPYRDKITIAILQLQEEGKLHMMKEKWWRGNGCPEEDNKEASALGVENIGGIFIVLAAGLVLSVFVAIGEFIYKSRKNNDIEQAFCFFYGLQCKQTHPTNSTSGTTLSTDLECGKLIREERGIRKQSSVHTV
T2 sequence (P42264 whole entry): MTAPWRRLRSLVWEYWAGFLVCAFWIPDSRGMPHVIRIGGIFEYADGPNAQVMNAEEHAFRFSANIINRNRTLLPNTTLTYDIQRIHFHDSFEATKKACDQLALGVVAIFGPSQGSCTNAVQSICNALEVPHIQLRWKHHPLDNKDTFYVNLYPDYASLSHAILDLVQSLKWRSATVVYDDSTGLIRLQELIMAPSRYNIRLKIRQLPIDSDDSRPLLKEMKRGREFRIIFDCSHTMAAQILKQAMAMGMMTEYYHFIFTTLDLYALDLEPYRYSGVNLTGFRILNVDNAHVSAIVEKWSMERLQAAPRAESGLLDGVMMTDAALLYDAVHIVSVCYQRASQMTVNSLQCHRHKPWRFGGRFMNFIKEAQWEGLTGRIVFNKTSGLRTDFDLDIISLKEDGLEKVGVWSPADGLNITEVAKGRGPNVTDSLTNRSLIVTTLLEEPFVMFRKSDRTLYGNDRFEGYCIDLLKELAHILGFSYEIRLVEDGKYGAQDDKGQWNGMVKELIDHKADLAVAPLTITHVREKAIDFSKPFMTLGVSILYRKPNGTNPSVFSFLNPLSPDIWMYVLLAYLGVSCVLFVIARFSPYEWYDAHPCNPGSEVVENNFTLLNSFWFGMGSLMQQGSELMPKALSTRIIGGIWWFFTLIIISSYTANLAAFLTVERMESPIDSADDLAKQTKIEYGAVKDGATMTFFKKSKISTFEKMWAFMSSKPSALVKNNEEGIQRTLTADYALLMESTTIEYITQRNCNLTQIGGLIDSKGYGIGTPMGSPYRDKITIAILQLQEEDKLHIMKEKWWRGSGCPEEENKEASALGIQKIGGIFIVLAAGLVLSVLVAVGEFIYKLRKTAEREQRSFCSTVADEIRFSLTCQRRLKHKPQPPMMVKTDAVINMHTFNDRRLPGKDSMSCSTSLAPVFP
Glutamate receptor ionotropic, kainate 2, sequence (Q13002 whole entry): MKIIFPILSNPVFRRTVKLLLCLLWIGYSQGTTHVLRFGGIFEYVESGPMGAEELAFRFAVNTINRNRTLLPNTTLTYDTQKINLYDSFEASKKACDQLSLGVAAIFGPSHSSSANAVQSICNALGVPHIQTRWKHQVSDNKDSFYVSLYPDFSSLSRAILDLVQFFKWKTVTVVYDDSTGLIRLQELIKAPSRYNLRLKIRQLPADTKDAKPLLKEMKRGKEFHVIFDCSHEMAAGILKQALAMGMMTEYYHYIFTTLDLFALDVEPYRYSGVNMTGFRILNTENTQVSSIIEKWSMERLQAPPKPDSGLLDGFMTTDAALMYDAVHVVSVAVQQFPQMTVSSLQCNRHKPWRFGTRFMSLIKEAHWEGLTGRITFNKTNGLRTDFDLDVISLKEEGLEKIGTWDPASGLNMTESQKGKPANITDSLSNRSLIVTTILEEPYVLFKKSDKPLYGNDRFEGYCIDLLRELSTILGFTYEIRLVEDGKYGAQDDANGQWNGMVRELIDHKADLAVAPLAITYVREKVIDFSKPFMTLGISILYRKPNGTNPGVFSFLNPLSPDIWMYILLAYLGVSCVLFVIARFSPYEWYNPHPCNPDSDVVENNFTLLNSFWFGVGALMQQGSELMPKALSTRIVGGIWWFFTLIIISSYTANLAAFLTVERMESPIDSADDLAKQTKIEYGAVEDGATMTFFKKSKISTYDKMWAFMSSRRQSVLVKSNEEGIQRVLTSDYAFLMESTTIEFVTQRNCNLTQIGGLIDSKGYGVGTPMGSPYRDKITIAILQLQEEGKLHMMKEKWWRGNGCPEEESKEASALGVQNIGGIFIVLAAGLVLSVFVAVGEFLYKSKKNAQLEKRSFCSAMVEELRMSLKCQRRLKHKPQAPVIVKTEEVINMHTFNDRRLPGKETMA
Glutamate receptor 3 (Homo sapiens, UniProt P42263), sequence (P42263 whole entry): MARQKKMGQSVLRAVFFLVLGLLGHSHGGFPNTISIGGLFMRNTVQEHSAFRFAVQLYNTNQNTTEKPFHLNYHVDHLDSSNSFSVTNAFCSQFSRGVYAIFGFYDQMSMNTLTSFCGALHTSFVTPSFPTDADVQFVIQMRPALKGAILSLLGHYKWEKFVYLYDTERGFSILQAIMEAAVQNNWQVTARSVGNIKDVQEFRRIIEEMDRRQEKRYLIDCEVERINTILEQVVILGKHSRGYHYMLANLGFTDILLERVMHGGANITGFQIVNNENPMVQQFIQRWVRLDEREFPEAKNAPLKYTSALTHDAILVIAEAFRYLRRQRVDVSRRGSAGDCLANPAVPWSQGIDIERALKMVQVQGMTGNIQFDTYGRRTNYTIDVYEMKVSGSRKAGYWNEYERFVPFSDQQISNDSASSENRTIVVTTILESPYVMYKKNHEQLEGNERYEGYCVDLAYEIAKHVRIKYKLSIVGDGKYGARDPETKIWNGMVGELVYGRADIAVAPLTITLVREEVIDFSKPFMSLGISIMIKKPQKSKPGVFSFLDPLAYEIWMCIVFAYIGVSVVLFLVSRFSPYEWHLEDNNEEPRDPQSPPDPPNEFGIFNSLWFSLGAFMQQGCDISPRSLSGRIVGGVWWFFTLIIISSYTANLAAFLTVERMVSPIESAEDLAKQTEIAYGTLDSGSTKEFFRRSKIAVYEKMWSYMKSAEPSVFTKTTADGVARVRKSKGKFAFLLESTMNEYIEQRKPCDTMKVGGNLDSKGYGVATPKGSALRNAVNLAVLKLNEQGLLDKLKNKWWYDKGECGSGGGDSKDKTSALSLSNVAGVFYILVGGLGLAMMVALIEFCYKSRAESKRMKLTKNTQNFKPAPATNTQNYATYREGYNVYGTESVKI
T1 sequence (Q13255 whole entry): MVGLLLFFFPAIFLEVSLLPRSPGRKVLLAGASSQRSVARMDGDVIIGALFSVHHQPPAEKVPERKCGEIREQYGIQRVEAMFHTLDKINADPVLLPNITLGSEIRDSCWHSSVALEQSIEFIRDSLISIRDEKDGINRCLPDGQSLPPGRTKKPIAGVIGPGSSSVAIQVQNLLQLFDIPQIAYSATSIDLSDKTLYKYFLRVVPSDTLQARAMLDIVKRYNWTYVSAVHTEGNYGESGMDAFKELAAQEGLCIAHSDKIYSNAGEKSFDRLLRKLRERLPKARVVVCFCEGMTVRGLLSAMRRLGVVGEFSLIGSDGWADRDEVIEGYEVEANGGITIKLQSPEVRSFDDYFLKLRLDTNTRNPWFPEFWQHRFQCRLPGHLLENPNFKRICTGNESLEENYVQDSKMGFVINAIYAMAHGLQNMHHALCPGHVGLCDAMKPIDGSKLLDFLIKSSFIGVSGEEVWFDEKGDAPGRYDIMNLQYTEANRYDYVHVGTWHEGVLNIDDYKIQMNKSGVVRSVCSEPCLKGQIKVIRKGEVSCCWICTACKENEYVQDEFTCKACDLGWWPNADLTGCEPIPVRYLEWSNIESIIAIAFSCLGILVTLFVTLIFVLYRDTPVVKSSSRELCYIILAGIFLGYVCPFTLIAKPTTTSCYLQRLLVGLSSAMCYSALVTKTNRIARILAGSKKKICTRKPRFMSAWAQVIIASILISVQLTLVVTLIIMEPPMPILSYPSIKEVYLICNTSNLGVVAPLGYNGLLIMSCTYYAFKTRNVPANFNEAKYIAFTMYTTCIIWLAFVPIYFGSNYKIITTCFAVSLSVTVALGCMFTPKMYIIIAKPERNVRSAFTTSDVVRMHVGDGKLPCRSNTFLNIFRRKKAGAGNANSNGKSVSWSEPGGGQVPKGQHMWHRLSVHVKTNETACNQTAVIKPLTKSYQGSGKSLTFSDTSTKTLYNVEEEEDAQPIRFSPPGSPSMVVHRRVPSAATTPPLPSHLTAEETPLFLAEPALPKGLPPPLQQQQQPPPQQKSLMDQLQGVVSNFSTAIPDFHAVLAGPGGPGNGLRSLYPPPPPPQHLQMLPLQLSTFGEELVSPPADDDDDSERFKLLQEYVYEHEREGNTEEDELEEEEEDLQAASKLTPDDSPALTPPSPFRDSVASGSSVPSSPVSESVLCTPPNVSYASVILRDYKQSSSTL

**Q.** For `Cc1onc(O)c1CC(N)C(=O)O` [(R,S)-AMPA], which EC50 [1] is on record?
**A.** 13 µM

**Q.** With `NC(Cc1onc(O)c1Cl)C(=O)O` (configuration not stated) as the compound, how does the Ki [2] read?
**A.** 18 µM

**Q.** And the Ki [3]?
**A.** 860 µM

**Q.** And the EC50 (Rattus norvegicus)?
**A.** 39 µM

**Q.** What about the IC50 (Glutamate receptor 1 [4]) of the same compound?
**A.** 0.22 µM

**Q.** And the Ki (Glutamate receptor 2 [5])?
**A.** 0.37 µM

**Q.** And the EC50 (Glutamate receptor 4 [6])?
**A.** 1300 µM

**Q.** And the Ki [7]?
**A.** 6.8 µM

**Q.** What about the EC50 (Glutamate receptor 3 [8]) of the same compound?
**A.** 2700 µM

**Q.** What about the IC50 [9] of the same compound?
**A.** > 100 µM

**Q.** And the Ki (Glutamate receptor 3 [10])?
**A.** 27.5 µM

**Q.** And the Ki [11]?
**A.** > 100 µM

**Q.** And the EC50 [1]?
**A.** 27 µM

**Q.** What about the EC50 (Glutamate receptor 2 [12]) of the same compound?
**A.** 1.7 µM

**Q.** What about the Ki (Glutamate receptor 1 [13]) of the same compound?
**A.** 0.13 µM

**Q.** What about the Ki (Glutamate receptor 4 [14]) of the same compound?
**A.** 11.9 µM

**Q.** Which Ki [2] does the source give for `NC(Cc1onc(O)c1Br)C(=O)O` (configuration not stated) here?
**A.** 34 µM

**Q.** And the Ki (Glutamate receptor 2 [5])?
**A.** 0.25 µM

**Q.** And the IC50 [15]?
**A.** > 100 µM

**Q.** What about the Ki [7] of the same compound?
**A.** 4.8 µM

**Q.** And the Ki [16]?
**A.** 329 µM

**Q.** What about the EC50 (Glutamate receptor 1 [17]) of the same compound?
**A.** 14 µM

**Q.** And the Ki (Glutamate receptor 3 [10])?
**A.** 12 µM

**Q.** What about the Ki [11] of the same compound?
**A.** > 100 µM

**Q.** And the EC50 [1]?
**A.** 16 µM

**Q.** What about the Ki (Glutamate receptor 1 [13]) of the same compound?
**A.** 0.17 µM

**Q.** What about the Ki (Glutamate receptor 4 [14]) of the same compound?
**A.** 11.7 µM

From ChEMBL document CHEMBL1144891, “Design, synthesis, and pharmacology of a highly subtype-selective GluR1/2 agonist, (RS)-2-amino-3-(4-chloro-3-hydroxy-5-isoxazolyl)propionic acid (Cl-HIBO)” (J Med Chem, 2003)
